# According to ChEMBL document CHEMBL1201862, “PubChem BioAssay data set” (2004):
# Calls of active or inactive are those of the source.
# Assays:
# ORF 73 = biological target: T1, ORF 73 (Human herpesvirus 8, UniProt O40947); experiment: KSHV LANA DNA-binding disruption – biochemical, fluorescence polarization, cherry-picked samples, dose response (AID 504725); set-up: species or system Human gammaherpesvirus 8;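 further: fluorescence polarization of a labeled DNA duplex reporting LANA DNA binding; potency is for inhibitors that block LANA binding to the DNA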
# T1 sequence (O40947 whole entry): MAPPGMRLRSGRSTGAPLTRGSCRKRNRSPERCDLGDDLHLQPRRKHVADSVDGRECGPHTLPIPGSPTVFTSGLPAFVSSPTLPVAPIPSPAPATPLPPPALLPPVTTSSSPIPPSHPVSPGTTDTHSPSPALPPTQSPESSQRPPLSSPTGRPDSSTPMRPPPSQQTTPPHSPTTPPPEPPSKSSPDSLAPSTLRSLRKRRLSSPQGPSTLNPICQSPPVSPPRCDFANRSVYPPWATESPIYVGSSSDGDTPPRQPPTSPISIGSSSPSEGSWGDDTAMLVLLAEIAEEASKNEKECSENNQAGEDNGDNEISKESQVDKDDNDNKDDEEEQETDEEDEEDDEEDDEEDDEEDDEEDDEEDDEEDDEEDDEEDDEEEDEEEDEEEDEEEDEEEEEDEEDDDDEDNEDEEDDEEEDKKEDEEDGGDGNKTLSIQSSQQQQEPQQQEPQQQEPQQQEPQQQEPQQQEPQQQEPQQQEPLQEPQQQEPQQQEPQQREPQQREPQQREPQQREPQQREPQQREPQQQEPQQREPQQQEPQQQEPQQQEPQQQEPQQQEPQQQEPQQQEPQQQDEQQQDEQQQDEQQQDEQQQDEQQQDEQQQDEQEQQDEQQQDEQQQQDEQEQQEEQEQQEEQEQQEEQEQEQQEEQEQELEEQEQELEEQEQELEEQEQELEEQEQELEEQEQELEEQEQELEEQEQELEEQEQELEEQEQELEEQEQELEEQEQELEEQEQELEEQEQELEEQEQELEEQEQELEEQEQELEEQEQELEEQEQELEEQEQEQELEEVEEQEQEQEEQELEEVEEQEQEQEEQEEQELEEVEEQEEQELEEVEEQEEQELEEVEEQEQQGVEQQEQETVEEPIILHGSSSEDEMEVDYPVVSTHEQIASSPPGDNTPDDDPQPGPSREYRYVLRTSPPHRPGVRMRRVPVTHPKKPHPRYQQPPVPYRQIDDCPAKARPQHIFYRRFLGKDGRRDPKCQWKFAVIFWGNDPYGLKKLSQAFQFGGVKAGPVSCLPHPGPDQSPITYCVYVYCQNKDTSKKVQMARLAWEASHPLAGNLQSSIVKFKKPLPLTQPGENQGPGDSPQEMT
# [1] = biological target: T2, 1-phosphatidylinositol 4,5-bisphosphate phosphodiesterase gamma-1 (Homo sapiens, UniProt P19174); experiment: Counterscreen for inhibitors of phospholipase C isozymes (PLC-B3): Fluorescence-based biochemical high throughput dose response assay to identify inhibitors of phospholipase C isozymes (PLC-gamma1).
# T2 sequence (P19174 whole entry): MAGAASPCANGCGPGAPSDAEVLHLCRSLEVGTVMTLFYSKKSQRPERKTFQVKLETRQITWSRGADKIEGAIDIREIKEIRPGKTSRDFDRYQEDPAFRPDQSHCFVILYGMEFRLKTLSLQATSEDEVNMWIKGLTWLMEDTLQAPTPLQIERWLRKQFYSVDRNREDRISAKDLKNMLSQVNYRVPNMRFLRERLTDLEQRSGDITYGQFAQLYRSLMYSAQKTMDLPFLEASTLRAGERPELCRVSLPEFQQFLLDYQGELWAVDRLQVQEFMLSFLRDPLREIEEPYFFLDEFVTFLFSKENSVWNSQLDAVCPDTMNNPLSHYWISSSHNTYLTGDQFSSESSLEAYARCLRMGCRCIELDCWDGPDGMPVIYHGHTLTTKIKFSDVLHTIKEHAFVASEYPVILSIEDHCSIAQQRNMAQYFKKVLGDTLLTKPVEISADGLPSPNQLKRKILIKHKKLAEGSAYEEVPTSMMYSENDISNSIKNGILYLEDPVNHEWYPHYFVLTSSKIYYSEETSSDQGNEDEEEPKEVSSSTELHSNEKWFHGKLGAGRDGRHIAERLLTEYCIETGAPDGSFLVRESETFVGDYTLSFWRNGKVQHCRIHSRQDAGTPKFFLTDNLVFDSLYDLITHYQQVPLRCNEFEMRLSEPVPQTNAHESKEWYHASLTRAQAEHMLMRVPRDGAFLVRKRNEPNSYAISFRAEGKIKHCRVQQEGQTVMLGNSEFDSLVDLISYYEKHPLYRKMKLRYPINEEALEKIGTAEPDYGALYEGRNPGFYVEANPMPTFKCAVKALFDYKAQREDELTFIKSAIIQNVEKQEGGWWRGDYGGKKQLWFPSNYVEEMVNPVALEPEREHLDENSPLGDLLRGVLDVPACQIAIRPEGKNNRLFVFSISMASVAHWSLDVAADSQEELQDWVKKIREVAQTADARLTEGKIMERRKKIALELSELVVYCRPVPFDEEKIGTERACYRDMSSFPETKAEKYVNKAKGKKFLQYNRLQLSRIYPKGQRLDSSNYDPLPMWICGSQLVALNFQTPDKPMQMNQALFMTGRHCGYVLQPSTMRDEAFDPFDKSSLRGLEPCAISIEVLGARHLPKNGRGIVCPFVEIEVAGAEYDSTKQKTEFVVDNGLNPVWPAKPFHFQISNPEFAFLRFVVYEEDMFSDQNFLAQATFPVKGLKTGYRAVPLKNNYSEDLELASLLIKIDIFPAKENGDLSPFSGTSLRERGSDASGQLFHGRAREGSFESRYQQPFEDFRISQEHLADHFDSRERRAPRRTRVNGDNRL
SMILES,AC50 (ORF 73),IC50 [1]
CCN(CC)CCN1C(=O)c2cccc3cc(N)cc(c23)C1=O,17.1 µM (active),–
O=S(=O)(O)c1cc(Cl)cc(N=Nc2ccc(O)cc2O)c1O,70.2 µM (active),> 122 µM (inactive)
O=C(O)c1cccc(-n2cccc2/C=C2/NC(=O)N(c3ccc(Cl)cc3)C2=O)c1,23.3 µM (active),> 122 µM (inactive)
